Laboratory results taken from the supplement of paper PMC10307832.

Columns and labels:
Assay in all cases: relative viability (nuclei count vs DMSO), 5 days (fraction); higher = more cells survive
Cediranib = compound: COc1cc2c(Oc3ccc4[nH]c(C)cc4c3F)ncnc2cc1OCCCN1CCCC1 [Cediranib]
In short: (§1)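 Lung cancer cell lines in 1536-well plates were exposed by pinning to five library-drug doses (not always all listed) √10 apart, following an overnight hold at 37 °C. MetaXpress counted Hoechst-stained nuclei from 4× images taken after 5 days without medium change. Viability is the median ratio of treated-well to vehicle-well nuclei across plates. Plates required control CV below 25% and at least one doubling.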

Decitabine = compound: Nc1ncn([C@H]2C[C@H](O)[C@@H](CO)O2)c(=O)n1 [Decitabine]
In short: as §1

Halofuginone = compound: O=C(C[C@H]1NCCC[C@@H]1O)Cn1cnc2cc(Br)c(Cl)cc2c1=O (racemic) [Halofuginone]
In short: as §1

| Cell Line | relative viability (Cediranib; 0.04 µM) | relative viability (Cediranib; 0.1265 µM) | relative viability (Cediranib; 0.4 µM) | relative viability (Cediranib; 1.265 µM) | relative viability (Cediranib; 4 µM) | relative viability (Decitabine; 0.04 µM) | relative viability (Decitabine; 0.1265 µM) | relative viability (Decitabine; 0.4 µM) | relative viability (Decitabine; 1.265 µM) | relative viability (Decitabine; 2 µM, anchor plate) | relative viability (Decitabine; 4 µM) | relative viability (Halofuginone; 0.001 µM) | relative viability (Halofuginone; 0.003162 µM) | relative viability (Halofuginone; 0.01 µM) | relative viability (Halofuginone; 0.03162 µM) | relative viability (Halofuginone; 0.1 µM) |
| --- | --- | --- | --- | --- | --- | --- | --- | --- | --- | --- | --- | --- | --- | --- | --- | --- |
| NCI-H2023 | 1 | 1.02 | 0.902 | 0.878 | 1.19 | 0.678 | 0.516 | 0.249 | 0.206 | 0.227 | 0.172 | 0.98 | 1.05 | 0.931 | 0.516 | 0.082 |
| EBC-1 | 0.999 | 0.946 | 0.971 | 1.01 | 1.19 | 0.626 | 0.456 | 0.313 | 0.272 |  | 0.246 | 1.06 | 0.946 | 0.829 | 0.496 | 0.231 |
| NCI-H1666 | 1.02 | 1.18 | 0.989 | 1.01 | 1.02 | 0.938 | 0.9 | 0.866 | 0.827 | 0.764 | 0.851 | 0.993 | 0.936 | 0.991 | 1.06 | 0.991 |
| NCI-H1975 | 0.974 | 0.983 | 0.914 | 0.956 | 0.939 | 0.594 | 0.526 | 0.372 | 0.352 | 0.394 | 0.358 | 1.05 | 0.943 | 0.953 | 0.692 | 0.442 |
| NCI-H2170 | 1 | 0.764 | 0.983 | 0.828 | 1.03 | 0.839 | 0.746 | 0.685 | 0.475 | 0.471 | 0.473 | 0.988 | 1.05 | 0.917 | 0.982 | 0.991 |
| NCI-H1355 | 0.944 | 1.04 | 0.898 | 0.944 | 1.06 | 0.768 | 0.643 | 0.42 | 0.338 | 0.362 | 0.278 | 0.989 | 1.02 | 0.94 | 0.941 | 0.899 |
| NCI-H1648 | 0.627 | 0.423 | 0.71 | 0.773 | 0.791 | 0.82 | 0.733 | 0.474 | 0.387 | 0.509 | 0.366 | 1.12 | 0.809 | 1.06 | 0.951 | 1.13 |
| A549 | 0.929 | 0.953 | 0.889 | 0.897 | 0.996 | 0.858 | 0.724 | 0.554 | 0.174 | 0.265 | 0.159 | 1.03 | 0.972 | 0.975 | 0.766 | 0.385 |
| SK-MES-1 | 1.06 | 1.12 | 0.961 | 0.967 | 1.09 | 0.827 | 0.707 | 0.461 | 0.339 | 0.378 | 0.305 | 1.04 | 1.05 | 0.978 | 0.827 | 0.271 |
| EKVX | 1.05 | 0.929 | 0.888 | 0.844 | 1.03 | 0.71 | 0.809 | 0.647 | 0.418 | 0.358 | 0.375 | 1.06 | 0.928 | 0.989 | 1 | 0.858 |
| RERF-LC-KJ | 1.01 | 0.862 | 0.946 | 0.963 | 1.05 | 0.951 | 0.967 | 0.561 | 0.688 | 0.728 | 0.642 | 1.08 | 1.07 | 0.951 | 0.966 | 0.912 |
| NCI-H1755 | 1.1 | 0.861 | 0.954 | 1.05 | 1.01 | 0.95 | 0.949 | 0.848 | 0.598 | 0.717 | 0.515 | 1.02 | 1.04 | 1.01 | 1.01 | 0.978 |
| NCI-H661 | 0.988 | 0.98 | 0.974 | 0.957 | 1.1 | 0.928 | 0.944 | 0.764 | 0.59 | 0.565 | 0.557 | 1.01 | 0.962 | 0.956 | 0.907 | 0.85 |
| LOU-NH91 | 0.967 | 1.15 | 0.932 | 0.878 | 0.958 | 0.781 | 0.928 | 0.886 | 0.83 | 0.808 | 0.848 | 1.03 | 0.929 | 0.98 | 1.06 | 0.912 |
| LXF-289 | 1.06 | 0.778 | 0.928 | 1.01 | 1.03 | 0.778 | 0.651 | 0.441 | 0.345 | 0.387 | 0.312 | 0.98 | 1.02 | 0.994 | 1.01 | 1 |
| HCC-44 | 0.996 |  | 0.945 | 0.959 | 0.983 | 0.924 | 0.985 | 0.348 | 0.545 | 0.938 | 0.639 | 0.988 | 0.98 | 0.972 | 0.953 | 0.8 |
| HARA | 0.908 | 1.01 | 0.878 | 1.05 | 1.01 | 0.79 | 0.818 | 0.482 | 0.381 | 0.519 | 0.374 | 0.963 | 0.927 | 0.915 | 1.12 | 0.827 |
| 201T | 1.04 | 1.1 | 0.911 | 0.956 | 0.974 | 0.981 | 1.02 | 1.04 | 0.612 | 0.855 | 0.953 | 0.97 | 0.967 | 0.952 | 0.933 | 0.803 |
| LC-2-ad | 1.04 | 0.871 | 0.953 | 0.955 | 0.785 | 0.832 | 0.839 | 0.679 | 0.411 | 0.786 | 0.501 | 1.11 | 0.944 | 0.932 | 0.978 | 0.833 |
| NCI-H596 | 1.06 | 0.959 | 0.935 | 0.907 | 1.1 | 0.894 | 0.871 | 0.607 | 0.799 | 1.04 | 0.692 | 1.01 | 0.965 | 1.13 | 0.882 | 0.549 |
| NCI-H1437 | 1.08 | 0.969 | 0.998 | 0.972 | 1.06 | 0.744 | 0.73 | 0.542 | 0.424 | 0.557 | 0.425 | 0.976 | 1.02 | 1.01 | 0.984 | 0.845 |
